Common to all, as to format: cell-based, human
Assay [1] deals with Hay1. The experiment in a line: Growth of Hay1 in defined medium after removal of individual peptide hormone factors. The following applies: for effect on growth of removal of the factor from the medium: Hay1, defined feeder free medium, factor removed individually. As for the experimental part:
The use of feeder layers complicates the use of stem cells for a variety of applications. Use of feeder layers dramatically raise the background in standard in vitro toxicology assays, such as MTT or resazurin reductions confounding the results. Hay1 can be grown routinely under defined conditions. Standard medium consists of KO-DMEM, 15% KO-serum replacement, glutamine, nonessential amino acids, β-MeSH, 10 ng/ml oncostatin M, 10 ng/ml SCF and 25 ng/ml bFGF. Using this medium, Hay1 continues to express the markers listed above and doubles approximately every three to four days. This is slightly slower than their doubling on feeder layers.
Growth of Hay1 was examined under various conditions known to affect stem cell growth and differentiation. Mouse and human EG cells require a source of gp130 signaling for growth in culture (Shamblott et al. (1998); Koshimuzu et al. (1996) Development 122, 1235-1242).
(§1) Since Oct 4 controls Nanog expression (Rodda et al. (2005)), it was expected that induction of Oct 4 would also raise nanog, and this is what was observed.

For assay [2], the system named is ACTHep1-6. In words: Reversal of transformation of ACTHep1-6 by ponasterone A induced dominant negative RAS. The following applies: 10 μM ponasterone A in Med3, 5% serum, 10,000 cells per well. The text has this:
Identification of a human hepatocyte cell line starting from human EG cells using sequential expression of an activated and a dominant negative transforming gene can be performed as follows. Human EG cells can be transfected with a construct containing the human hepatitis B virus core promoter/enhancer (SEQ ID NO:1) driving an activated H-RAS gene (SEQ ID NO:2) and also optionally containing an ecdysone inducible gene switch promoter (SEQ ID NO:3) driving a dominant negative H-RAS gene (SEQ ID NO:4) (Sandig et al., (1996) Gene Therapy 3, 1002-1009; Saez et al., (2000) Proc. Natl. Acad. Sci. 97, 14512-14517). The activated H-RAS can be transcribed after differentiation of the EG cells. Transformed hepatocytes can be isolated in soft agar, cloned, expanded and frozen. Cultures can be plated at low density then treated with ponasterone A to induce the dominant negative RAS and reverse transformation. Cells are expected to arrest growth at subconfluent densities. Their identity as hepatocytes can be confirmed by production of albumin, cyp1A and cyp3A.
ACTHep1-6 can be further characterized. Individual vials can be thawed and plated in Med3, 5% serum as described above. Cells can be expanded, then plated at a density of 10,000 cells per well in a 96 well plate. […] Cells are selected having the cuboidal appearance of hepatocytes with a prominent nucleus. […]

For assay [3], the system named is Oct 4 and Nanog. The experiment in a line: Oct 4 and Nanog expression in Hay1 by real time RT-QPCR.
Description: While surface markers and alkaline phosphatase are convenient markers for stem cells, it has become clear that expression of the transcription factors Oct 4 and Nanog are fundamental characteristics of stem cells (Rodda et al. (2005) J. Biol. Chem. 280, 24731-24737; Chambers et al. (2003) Cell 113, 643-655). Hay1 was examined for expression of these factors using real time RT-QPCR. […] Biomol. Screen. 5, 249-254), a medium that is a mixture of Weymouth's MAB, Ham's F12 and William's E. It also contains 5% defined calf serum (Hyclone). Actin was used as a standard.
as §1

For assay [4], the system named is Hay1. The experiment in a line: Zeocin sensitivity of Hay1 (standard titration curve, selection). As for the experimental part: In preparation for the establishment of the frt insert line, the sensitivity of Hay1 to zeocin was tested.
The plasmid pFrt/lac/Zeo (Invitrogen) can be transfected into Hay1 using Lipofectamine 2000. After 48 hrs, resistant cells can be selected by changing to medium containing 75 μg/ml Zeocin (Invitrogen). Non-resistant cells are dead in about seven days. An efficiency of about 1×10^−5/μg is expected. Approximately ten individual transfectants can be selected and tested for expression of lacZ. Copy number of the plasmid can be evaluated via Southern blotting. Transfectants with single insertions can be chosen for further analysis. To examine the behavior of the insert during differentiation, cells can be subjected to EB formation, followed by culture in Med3, 5% defined calf serum for one week. They can be reevaluated for lacZ expression. Since Zeo selection can be maintained, it is expected that all surviving cells will retain lacZ expression. It is a general strategy to maintain selective pressure on the inserts to insure expression of the surrounding DNA, as has been successfully employed in a number of other studies (Zweigerdt et al., (2001) Cytotherapy 5, 399-413; Liu et al. (2004) Stem Cells Dev. 13, 636-645; Schuldiner et al., (2003) Stem Cells 21, 257-265).

[5] abbreviates: Hay1, FGF replaced after withdrawal.

Regarding human Stem Cell Factor [SCF], the “effect on growth of removal of the factor from the medium” value (“effect on growth” for short) in assay [1] is recorded as “some effect on growth”.
Turning to `CC(C)CC[C@@H](O)[C@](C)(O)[C@H]1CC[C@@]2(O)C3=CC(=O)[C@@H]4C[C@@H](O)[C@@H](O)C[C@]4(C)[C@H]3CC[C@]12C` [ponasterone A], the “growth of cells after addition of ponasterone A” value in assay [2] is “stop growing over the next 24 hours and arrest at subconfluent densities”.
Take “human basic Fibroblast Growth Factor [FGF]”: the “Nanog expression after replacement of FGF” value in assay [3] (setting [5]) is on record as “raise nanog”. Besides, in assay [3] (setting [5]), the “Oct 4 expression after replacement of FGF” value is “returned Oct 4 expression to its former level”. In addition, in assay [3] (Hay1, FGF withdrawn), the “Oct 4 and Nanog expression after FGF withdrawal” value was “dramatic reduction in expression”. The “effect on growth” value in assay [1] is listed as “slight negative effect on growth”; in assay [1] (listed as bFGF), “some effect on growth”. The “effect on morphology of removal of the factor” value in assay [1] (Hay1, defined medium, FGF removed) is “flatter and more spread out on the dish”.
As to oncostatin M, the “effect on growth” value in assay [1] was “completely arrested the growth”; in assay [1] (listed as Onc M), “some effect on growth”. The “alkaline phosphatase status of cultures after removal of the factor” value in assay [1] (Hay1, defined medium, factor removed) is recorded as “alkaline phosphatase negative within several days”.
Consider `Cc1c(N)nc([C@H](CC(N)=O)NC[C@H](N)C(N)=O)nc1C(=O)N[C@H](C(=O)N[C@H](C)[C@@H](O)[C@H](C)C(=O)N[C@H](C(=O)NCCC1=N[C@@H](c2nc(C(=O)NCCCCN=C(N)N)cs2)CS1)[C@@H](C)O)[C@@H](O[C@@H]1O[C@@H](CO)[C@@H](O)[C@H](O)[C@@H]1O[C@H]1O[C@H](CO)[C@@H](O)[C@H](OC(N)=O)[C@@H]1O)c1cnc[nH]1` [zeocin], for which the effective selection concentration in assay [4] (Hay1, standard titration curve) came to 75 µg/mL. Besides, the “time until non-resistant cells are dead” value in assay [4] (Hay1 transfected with pFrt/lac/Zeo, medium containing 75 μg/ml Zeocin) is on record as “about seven”.
